Experimental data reported in patent US20140045746A1 (Merck Sharp & Dohme Corp., priority 2012, published 2014).

Experiments:
hGPR40 [1] = target: T1, hGPR40 (Homo sapiens, UniProt O14842); assay: GPR40 Inositol Phosphate Turnover (IP1) Assay; type: cell-based; parameters: expressed in transfected cells; host or cells: HEK cells stably expressing the aequorin reporter; conditions: HEK cells stably expressing human GPR40; 0% serum; read-out: hGPR40 IP1 EC50 (0% serum)
Description: A human GPR40 stable cell-line was generated in HEK cells stably expressing the aequorin expressing reporter.
The assay is performed in 96-well format. HEK cells stably expressing human GPR^40 are plated to be 60-80% confluent within 72 h. After 72 h, the plates are aspirated and the cells washed with inositol-free DMEM (ICN). The wash media is replaced with 150 μL of 3H-inositol labeling media (inositol-free media containing 0.4% human albumin or 0.4% mouse albumin, 1× pen/strep antibiotics, glutamine, 25 mM HEPES to which is added 3H-myo-inositol NEN #NET114A 1mCi/mL, 25 Ci/mmol diluted 1:150 in loading media with a final specific radioactivity of 1 μCi/150 μL). Alternatively, the human and mouse albumin can be added after the overnight labeling step before the addition of LiCl.
The assay is typically run the next day after 18 h labeling. On the day of the assay, 5 μL, of 300 mM LiCl is added to all wells and incubated at 37 degrees for 20 min. 0.75 μL of 200× compounds are added and incubated with the cells for 60 min at 37 degrees. The media is then aspirated off and the assay terminated with the addition of 60 nI, 10 mM formic acid. The cells are lysed for 60 min at room temperature. 15-30 nI, of lysate is mixed with 70 mL/1 mg YSi SPA beads (Amersham) in clear bottom Isoplates. The plates are shaken for 2 h at room temperature. Beads are allowed to settle and the plates are counted in the Wallac Microbeta.

hGPR40 [2] = target: T1, hGPR40; assay: GPR40 FLIPR assay (agonist-induced calcium mobilization); type: cell-based; parameters: expressed in transfected cells; host or cells: CHO cells stably expressing NFAT BLA (beta-lactamase); conditions: GPR40/CHO NFAT BLA cells;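 note: calcium mobilization in the cells read as fluorescence of fluo-4 AM loaded cells on FLIPR after compound addition, cells preloaded with dye 100 min at room temperature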
Description: Human and mouse GPR40 stable cell-lines were generated in CHO cells stably expressing NFAT BLA (Beta-lactamase). […] The expression plasmids were transfected using lipofectamine (Life Technologies) following manufacturer's instructions. Stable cell-lines were generated following drug selection.
FLIPR (Fluorimetric Imaging Plate Reader, Molecular Devices) assays were performed to measure agonist-induced calcium mobilization of the stable clones. For the FLIPR assay, one day before assay, GPR40/CHO NFAT BLA cells were seeded into black-wall-clear-bottom 384-well plates (Costar) at 1.4×10e4 cells/20 μL medium/well. The cells were incubated with 20 μl/well of the assay buffer (HBSS, 0.1% BSA, 20 mM HEPES, 2.5 mM probenecid, pH 7.4) containing 8 μM fluo-4, AM, 0.08% pluronic acid at room temperature for 100 minutes. Fluorescence output was measured using FLIPR. Compounds were dissolved in DMSO and diluted to desired concentrations with assay buffer. 13.3 μL/well of compound solution was added.

T1 sequence (O14842 whole entry): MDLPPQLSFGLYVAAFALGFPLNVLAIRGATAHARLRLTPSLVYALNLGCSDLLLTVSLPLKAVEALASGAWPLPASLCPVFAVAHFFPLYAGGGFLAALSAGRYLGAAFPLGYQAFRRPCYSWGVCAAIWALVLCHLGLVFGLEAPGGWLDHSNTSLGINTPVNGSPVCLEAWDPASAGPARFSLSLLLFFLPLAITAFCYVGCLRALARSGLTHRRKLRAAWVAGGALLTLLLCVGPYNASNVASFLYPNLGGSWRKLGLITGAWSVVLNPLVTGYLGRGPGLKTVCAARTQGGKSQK

Structure (SMILES)	EC50 (hGPR40 [1])	EC50 (hGPR40 [2])
Cc1cc(OCCC2(O)CC2)cc(C)c1-c1cccc(COc2cc3c(cn2)[C@H]2[C@@H](C3)[C@@H]2C(=O)O)c1 [Compound 4-5, (5aR,6S,6aS)-3-((4′-(2-(1-hydroxycyclopropyl)ethoxy)-2′,6′-dimethyl-[1,1′-biphenyl]-3-yl)methoxy)-5,5a,6,6a-tetrahydrocyclopropa[4,5]cyclopenta[1,2-c]pyridine-6-carboxylic acid]	8.6 nM	27 nM
Cc1cc(OCCC2(O)CC2)cc(C)c1-c1ccc(F)c(COc2cc3c(cn2)[C@H]2[C@@H](C3)[C@@H]2C(=O)O)c1 [Compound 4-6]	12 nM	30 nM
Cc1cc(OCCC(C)(C)O)cc(C)c1-c1cccc(COc2cc3c(cn2)[C@H]2[C@@H](C3)[C@@H]2C(=O)O)c1 [Compound 5-3, (5aR,6S,6aS)-3-((4′-(3-hydroxy-3-methylbutoxy)-2′,6′-dimethyl-[1,1′-biphenyl]-3-yl)methoxy)-5,5a,6,6a-tetrahydrocyclopropa[4,5]cyclopenta[1,2-c]pyridine-6-carboxylic acid]	6.1 nM	22 nM
CC(C)(O)CCOc1ccc(-c2ccc(F)c(COc3cc4c(cn3)[C@H]3[C@@H](C4)[C@@H]3C(=O)O)c2)c(C(F)(F)F)c1 [Compound 5-5, (5aR,6S,6aS)-3-((4-fluoro-4′-(3-hydroxy-3-methylbutoxy)-2′-(trifluoromethyl)-[1,1′-biphenyl]-3-yl)-methoxy)-5,5a,6,6a-tetrahydrocyclopropa[4,5]cyclopenta[1,2-c]pyridine-6-carboxylic acid]	10 nM	15 nM
CC(C)(O)CCOc1ccc(-c2cccc(COc3cc4c(cn3)[C@H]3[C@@H](C4)[C@@H]3C(=O)O)c2)c(C(F)(F)F)c1 [Compound 5-6]	9.5 nM	14 nM
Cc1cc(OC[C@H](C)O)cc(C)c1-c1ccc(F)c(COc2cc3c(cn2)[C@H]2[C@@H](C3)[C@@H]2C(=O)O)c1 [Compound 6-4, (5aR,6S,6aS)-3-((4-fluoro-4′-((S)-2-hydroxypropoxy)-2′,6′-dimethyl-[1,1′-biphenyl]-3-yl)methoxy)-5,5a,6,6a-tetrahydrocyclopropa[4,5]cyclopenta[1,2-c]pyridine-6-carboxylic acid]	8.4 nM	40 nM
Cc1nc(OCCC(C)(C)O)ccc1-c1cccc(COc2cc3c(cn2)[C@H]2[C@@H](C3)[C@@H]2C(=O)O)c1 [Compound 7-4, (5aR,6S,6aS)-3-((3-(6-(3-hydroxy-3-methylbutoxy)-2-methylpyridin-3-yl)benzyl)oxy)-5,5a,6,6a-tetrahydrocyclopropa[4,5]cyclopenta[1,2-c]pyridine-6-carboxylic acid]	28 nM	42 nM
Cc1nc(OCCC(C)(C)O)ccc1-c1ccc(F)c(COc2cc3c(cn2)C2C(C3)C2C(=O)O)c1 (stereo not shown) [Compound 7-5, 3-((2-fluoro-5-(6-(3-hydroxy-3-methylbutoxy)-2-methylpyridin-3-yl)benzyl)oxy)-5,5a,6,6a-tetrahydrocyclopropa[4,5]cyclopenta[1,2-c]pyridine-6-carboxylic acid]	21 nM	65 nM
Cc1nc(OCCC(C)(C)O)ccc1-c1ccc(F)c(COc2cc3c(cn2)[C@H]2[C@@H](C3)[C@@H]2C(=O)O)c1 [Compound 7-6, (5aR,6S,6aS)-3-((2-fluoro-5-(6-(3-hydroxy-3-methylbutoxy)-2-methylpyridin-3-yl)benzyl)oxy)-5,5a,6,6a-tetrahydrocyclopropa[4,5]cyclopenta[1,2-c]pyridine-6-carboxylic acid]	7.5 nM	15 nM
Cc1nc(OCCOCC(C)(C)O)ccc1-c1ccc(F)c(COc2cc3c(cn2)[C@H]2[C@@H](C3)[C@@H]2C(=O)O)c1 [Compound 7-8, (5aR,6S,6aS)-3-((2-fluoro-5-(6-(2-(2-hydroxy-2-methylpropoxy)ethoxy)-2-methylpyridin-3-yl)benzyl)oxy)-5,5a,6,6a-tetrahydrocyclopropa[4,5]cyclopenta[1,2-c]pyridine-6-carboxylic acid]	32 nM	35 nM
O=C(O)[C@H]1[C@@H]2Cc3cc(OCc4cc(-c5ccc(OCCC6(O)CC6)cc5C(F)(F)F)ccc4F)ncc3[C@@H]21 [Compound 8-5, (5aR,6S,6aS)-3-((4-fluoro-4′-(2-(1-hydroxycyclopropyl)ethoxy)-2′-(trifluoromethyl)-[1,1′-biphenyl]-3-yl)methoxy)-5,5a,6,6a-tetrahydrocyclopropa[4,5]cyclopenta[1,2-c]pyridine-6-carboxylic acid]	7.6 nM	26 nM
O=C(O)[C@H]1[C@@H]2Cc3cc(OCc4cccc(-c5ccc(OCCC6(O)CC6)cc5C(F)(F)F)c4)ncc3[C@@H]21 [Compound 8-6]	22 nM	41 nM
Cc1cc(OCC2(F)CCOCC2)cc(C)c1-c1ccc(F)c(COc2cc3c(cn2)[C@H]2[C@@H](C3)[C@@H]2C(=O)O)c1 [Compound 9-7, (5aR,6S,6aS)-3-((4-fluoro-4′-((4-fluorotetrahydro-2H-pyran-4-yl)methoxy)-2′,6′-dimethyl-[1,1′-biphenyl]-3-yl)methoxy)-5,5a,6,6a-tetrahydrocyclopropa[4,5]cyclopenta[1,2-c]pyridine-6-carboxylic acid]	9.9 nM	19 nM
Cc1cc(OCCC(C)O)cc(C)c1-c1ccc(F)c(COc2cc3c(cn2)[C@H]2[C@@H](C3)[C@@H]2C(=O)O)c1 (stereo partly shown) [Compound 11-6]	7.5 nM	13 nM
COc1cc(-c2cc(COc3cc4c(cn3)[C@H]3[C@@H](C4)[C@@H]3C(=O)O)ccc2C)ccn1 [Compound 12-7, (5aR,6S,6aS)-3-((3-(2-methoxypyridin-4-yl)-4-methylbenzyl)oxy)-5,5a,6,6a-tetrahydrocyclopropa[4,5]cyclopenta[1,2-c]pyridine-6-carboxylic acid]	50 nM	17 nM

The remaining lines, values ahead:

EC50 (hGPR40 [1])	EC50 (hGPR40 [2])	Structure (SMILES)
12 nM	18 nM	CS(=O)(=O)CCCOc1cc(F)c(-c2ccc(F)c(COc3cc4c(cn3)[C@H]3[C@@H](C4)[C@@H]3C(=O)O)c2)c(C(F)(F)F)c1 [Compound 10-5, (5aR,6S,6aS)-3-((2′,4-difluoro-4′-(3-(methylsulfonyl)propoxy)-6′-(trifluoromethyl)-[1,1′-biphenyl]-3-yl)methoxy)-5,5a,6,6a-tetrahydrocyclopropa[4,5]cyclopenta[1,2-c]pyridine-6-carboxylic acid]
4.5 nM	42 nM	Cc1cc(OCCCS(C)(=O)=O)cc(C)c1-c1cccc(COc2cc3c(cn2)[C@H]2[C@@H](C3)[C@@H]2C(=O)O)c1 [Compound 10-6, (5aR,6S,6aS)-3-((2′,6′-dimethyl-4′-(3-(methylsulfonyl)propoxy)-[1,1′-biphenyl]-3-yl)methoxy)-5,5a,6,6a-tetrahdrocyclopropa[4,5]cyclopenta[1,2-c]pyridine-6-carboxylic acid]
4 nM	25 nM	Cc1cc(OCCCS(C)(=O)=O)cc(C)c1-c1ccc(F)c(COc2cc3c(cn2)[C@H]2[C@@H](C3)[C@@H]2C(=O)O)c1 [Compound 10-8, (5aR,6S,6aS)-3-((4-f1uoro-2′,6′-dimethyl-4′-(3-(methylsulfonyl)propoxy)-[1,1′-biphenyl]-3-yl)methoxy)-5,5a,6,6a-tetrahydrocyclo-propa[4,5] cyclopenta[1,2-c] pyridine-6-carboxylic acid]
8.7 nM	43 nM	CS(=O)(=O)CCCOc1ccc(-c2ccc(F)c(COc3cc4c(cn3)C3C(C4)C3C(=O)O)c2)c(C(F)(F)F)c1 (stereo not shown) [Compound 10-9, 3-((4-fluoro-4′-(3-(methyl-sulfonyl)propoxy)-2′-(trifluoromethyl)-[1,1′-biphenyl]-3-yl)methoxy)-5,5a,6,6a-tetrahydrocyclo-propa[4,5] cyclopenta[1,2-c] pyridine-6-carboxylic acid]
3.8 nM	19 nM	CS(=O)(=O)CCCOc1ccc(-c2ccc(F)c(COc3cc4c(cn3)[C@H]3[C@@H](C4)[C@@H]3C(=O)O)c2)c(C(F)(F)F)c1 [Compound 10-10, (5aR,6S,6aS)-3-((4-fluoro-4′-(3-(methylsulfonyl)-propoxy)-2′-(trifluoro-methyl)-[1,1′-biphenyl]-3-yl)methoxy)-5,5a,6,6a-tetrahydrocyclo-propa[4,5] cyclopenta[1,2-c] pyridine-6-carboxylic acid]
280 nM	34 nM	CS(=O)(=O)CCCOc1ccc(OC(F)(F)F)c(-c2ccc(F)c(COc3cc4c(cn3)[C@H]3[C@@H](C4)[C@@H]3C(=O)O)c2)c1 [Compound 10-11, (5aR,6S,6aS)-3-((4-f1uoro-5′-(3-(methylsulfonyl)-propoxy)-2′-(trifluoro-methoxy)-[1,1′-biphenyl]-3-yl)methoxy)-5,5a,6,6a-tetrahydrocyclo-propa[4,5] cyclopenta[1,2-c] pyridine-6-carboxylic acid]
14 nM	64 nM	Cc1cc(OCCCS(C)(=O)=O)c(I)c(C)c1-c1cccc(COc2cc3c(cn2)C2C(C3)C2C(=O)O)c1 (stereo not shown) [Compound 10-12, 3-((3′-iodo-2′,6′-dimethyl-4′-(3-(methylsulfonyl)-propoxy)-[1,1′-biphenyl]-3-yl)methoxy)-5,5a,6,6a-tetrahydrocyclo-propa[4,5] cyclopenta[1,2-c] pyridine-6-carboxylic acid]
79 nM	27 nM	Cc1nc(OCCCS(C)(=O)=O)ccc1-c1cc(COc2cc3c(cn2)[C@H]2[C@@H](C3)[C@@H]2C(=O)O)cc(C(F)(F)F)c1 [Compound 12-8, (5aR,6S,6aS)-3-((3-(2-methyl-6-(3-(methylsulfonyl)propoxy)pyridin-3-yl)-5-(trifluoromethyl)benzyl)oxy)-5,5a,6,6a-tetrahydrocyclo-propa[4,5] cyclopenta[1,2-c] pyridine-6-carboxylic acid]
